Reference: US20070104787A1, “Carboxyalkyl cellulose esters for sustained delivery of pharmaceutically active substances” (priority 2005, published 2007)

What was measured:
[1] = USP #2 paddle dissolution test: release of active in pH 1.2 or pH 6.8 buffer; format: physicochemical; details: for total release of active (in words): CMCAB tablets (Formulations E17, E18, E20), pH 1.2
Procedure: The dissolution tests were done using a USP #2 calibrated apparatus Varian VK 7000 with Teflon paddles. The pills were added to 900 ml of USP 1.2 pH buffer or to 900 ml of USP pH 6.8 buffer. The buffer solutions had each been degassed at 41° C. through a 0.45 micron hydrophilic polypropylene filter and held under vacuum for an additional 5 minutes. After the solutions were added to the dissolution vessels, the solutions were held at 37.3° C. in the water bath for 30 minutes to achieve constant temperature, prior to the addition of the tablets. The tablets were weighted down with a Varian 3-pronged capsule weight. At the beginning of each run, the tablets were allowed to sink to the bottom of the 1000 ml vessel, the stirrers were turned on at 50 rpm and samples taken as a function of time, using polypropylene syringes. The samples were filtered through 0.45 micron filters and immediately analyzed for the amount of aspirin in the solution. The wavelength for measuring the amount of aspirin (salicylic acid acetate) at pH 1.2 was 279 nm, which was the wavelength for equivalent molar absorptivities for both salicylic acid and aspirin using a Varian UV-VIS Spectrophotometer and quartz absorption cells. Similarly, the wavelength used to measure the concentration of the aspirin in pH 6.8 buffer was 267 nm, which was the wavelength where the molar absorptivity for salicylic acid and aspirin are equivalent at pH 6.8. This allowed accurate measurement of the release rate profile without having to worry about the degradation of the aspirin to salicylic acid with time. Each set of experiments had appropriate standards for reference for quantitative analysis. In the cases where the samples contained Vitamin E-TPGS, HPLC with UV detection was done to analyze for aspirin and salicylic acid.
6.0069 g CMCAB was mixed with 1.4937 g Fexofenadine HCl and 10.7693 g ethanol. The clear solution was allowed to dry into a clear film. The amorphous compatible film was then ground in a SPEX™ liquid nitrogen Freezer Mill for 6 minutes at 75% maximum speed. Torpac Inc. #2 Gelatin capsules were filled with the powdered polymer blend and tested using a Varian VK7000 USP II dissolution device at pH 1.2 and pH 6.8. The dissolution results are shown in FIG. 24, which is a plot of fexofenadine released from CMCAB solid dispersion (y-axis) versus time (minutes, x-axis) for Formulation E24 in Example 4. […] By varying the way the carboxyalkyl cellulose ester is mixed with the active, the rate of release can be varied so that one can achieve near zero order release of the active over a long period of time.

[2] = cited from earlier work

total release of active (in words) [1]	pH dependence of release ([1]; CMCAB tablet (Formulation E22), pH 1.2 versus pH 6.8)	duration of near zero order release ([1]; CMCAB tablet at 25% active (Formulation E22))	SMILES	water solubility [2]
low total release			Cc1nnc(NS(=O)(=O)c2ccc(N)cc2)s1 [sulfamethizole]	
low total release			CC(C)Cc1ccc(C(C)C(=O)O)cc1 (stereo not drawn) [ibuprofen]	
low total release			COc1cc(Cc2cnc(N)nc2N)cc(OC)c1OC [trimethoprim]	
	little pH dependence	up to 500 minutes	OC(Cn1cncn1)(Cn1cncn1)c1ccc(F)cc1F [fluconazole]	highly water soluble
